Reference: patent US20240092774A1, “HETEROAROMATIC COMPOUNDS AND USES THEREOF” (HUTCHISON MEDIPHARMA LIMITED, priority 2020, published 2024)

Experiments:
[1] = molecular target: CSF1R phosphorylation in THP-1 cells (Homo sapiens (Human), UniProt P07333); assay: Detection of CSF1R phosphorylation activity at cell level (p-CSF1R ELISA, M-CSF stimulated THP-1 cells); format: cell-based; conditions: THP-1 cells, M-CSF stimulation, p-CSF1R ELISA; read-out: IC50
Protocol: THP-1 (ATCC), human acute monocytic leukemia cells.
3. Treatment of cells and preparation of lysis buffer
5 μL. of the diluted compound was added to the 50 μL cell culture system, the culture was cultured in a 5% CO2, 37° C. cell incubator for 60 min, 300 ng/mL of M-CSF was added to the cells, and the mixture was stimulated in the 37° C. cell incubator for 1 min, added 50 μL of cell lysis buffer, and stored in a refrigerator at −80° C.
100 μL/well of the p-CSF1R capture antibody diluted to 0.8 μg/mL with PBS was added to the ELISA plate, and the plate was coated on a shaker at room temperature overnight. The culture was washed with PBST, and then added blocking solution and incubated at room temperature for 2 h. The culture was washed with PBST, added 90 μL of cell lysis buffer, and incubated on a shaker at 25° C. for 2 h. The plate was washed with PBST three times, added 100 μL of anti-p-tyrosine-HRP detection antibody diluted with 0.1% PBS-BSA diluent, and incubated on a shaker at 25° C. for 2 h. The plate was washed with PBST washing liquid, added 100 μL of chromogenic substrate and incubated at room temperature for 10-20 min. The reaction was stopped by adding 50 μL of 2N H2SO4. The optical density signal (450/570 nm) of each well was detected in Labsystems Multiskan K3 or Envision.
wherein • Drug-treated well read-out: indicating the optical density signal of a cell well with the test compound treatment. • Background read-out: indicating the optical density signal of a well without cells but with cell lysis buffer. • Cell well read-out: indicating the optical density signal of a cell well not treated with the compound.
6. Calculation of IC50: obtained by using XL-Fit 5.3 software, […]

[2] = molecular target: Recombinant human CSF1R kinase (Homo sapiens (Human), UniProt P07333); assay: Measurement of CSF1R kinase activity at molecular level (Z-LYTE); format: biochemical; conditions: Z-LYTE Tyr 1 peptide
Protocol: Invitrogen, PV3227; • Development reagent B: Invitrogen, PV3295; • Development buffer: Invitrogen. P3127; • Stopping solution: Invitrogen, P3094; • Recombinant human CSF1R kinase: Invitrogen, P[…]; • 384 well plate, black: Corning. 3575; • Envision: Perkin Elmer. 2. […] The test compound was diluted in gradient to 4-fold the reaction concentration and the concentration of DMSO was kept at 8%. […] The mixture was mixed gently with a pipette. • 4) A phosphorylated peptide substrate solution (PP solution): 0.4 μL of Z-LYTETM Tyr1 phosphorylated peptide substrate was added to 99.6 μl of 1.33× kinase buffer. • 5) ATP solution: 10 mM of ATP was diluted to 760 μM with 1.33× kinase buffer to prepare ATP solution. • 6) Development solution: Development reagent B was diluted with Development buffer at a ratio of 1:200. 3. […] 2.5 μL of 4× test compound was added to each reaction well of the 384 plate, and the corresponding volume of 8% DMSO was added to the control well. The plate was placed on ice. […] After adding the reaction components, the 384-well plate was sealed and incubated at 25-30° C. for 1 h in dark. 2) Development Reaction 5 μL of Development solution was added to each well, sealed and incubated at 25-30° C. for another 1 h in dark. 3) Reaction Stopping and Plate Reading 5 μL of stopping solution was added to each well. The Coumarin value (excitation at 400 nm, emission at 445 nm) and Fluorescein value (excitation at 400 nm, emission at 520 nm) were measured, respectively. 4. […] Coumarin emission read-out (445 nm)/Fluorescein emission read-out (520 nm); • C3 445 nm: 100% phosphorylated Coumarin emission read-out; • C3 520 nm: 100% phosphorylated Fluorescein emission read-out; • C1 445 nm: 0% phosphorylated Coumarin emission read-out; • C1 520 nm: 0% phosphorylated Fluorescein emission read-out. […] 5. IC50 values: calculated by using software XL-FitTM (version 5.3) supplied by ID Business Solutions (Guildford, UK), which is an additional software to Microsoft Excel.

Sequence of CSF1R phosphorylation in THP-1 cells (P07333 20-972): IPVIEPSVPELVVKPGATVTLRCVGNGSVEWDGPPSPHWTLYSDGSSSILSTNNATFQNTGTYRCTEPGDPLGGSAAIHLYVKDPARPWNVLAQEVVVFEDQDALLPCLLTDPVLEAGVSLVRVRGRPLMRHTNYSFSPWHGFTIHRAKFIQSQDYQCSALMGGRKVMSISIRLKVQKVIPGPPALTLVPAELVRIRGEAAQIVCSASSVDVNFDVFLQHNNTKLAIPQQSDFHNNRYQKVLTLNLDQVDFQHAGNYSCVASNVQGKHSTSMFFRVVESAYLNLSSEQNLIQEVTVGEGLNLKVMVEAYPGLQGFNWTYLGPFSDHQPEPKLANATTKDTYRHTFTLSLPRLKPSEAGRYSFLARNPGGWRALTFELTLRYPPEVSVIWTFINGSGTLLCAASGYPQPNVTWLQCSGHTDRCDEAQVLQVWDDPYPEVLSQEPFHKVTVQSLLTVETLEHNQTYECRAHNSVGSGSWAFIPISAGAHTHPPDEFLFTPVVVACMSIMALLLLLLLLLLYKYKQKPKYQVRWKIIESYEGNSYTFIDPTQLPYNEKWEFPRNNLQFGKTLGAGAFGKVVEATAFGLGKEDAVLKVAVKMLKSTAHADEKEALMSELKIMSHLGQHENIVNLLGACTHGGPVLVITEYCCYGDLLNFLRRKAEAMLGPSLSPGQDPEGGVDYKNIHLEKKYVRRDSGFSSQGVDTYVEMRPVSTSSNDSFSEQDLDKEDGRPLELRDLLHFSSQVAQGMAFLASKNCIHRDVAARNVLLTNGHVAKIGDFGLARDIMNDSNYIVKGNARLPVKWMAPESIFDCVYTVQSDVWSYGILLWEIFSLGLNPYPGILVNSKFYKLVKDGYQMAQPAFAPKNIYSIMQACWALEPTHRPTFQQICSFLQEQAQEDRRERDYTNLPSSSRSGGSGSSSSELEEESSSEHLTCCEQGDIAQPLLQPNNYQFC
Sequence of Recombinant human CSF1R kinase (P07333 20-972): as above

| IC50 [1] [nM] | IC50 [2] [nM] | Compound |
| --- | --- | --- |
| 60 | 23 | Cn1cc(-c2cc(Oc3cnc4c(c3)O[C@H](c3ccc(C5CC5)cc3)CO4)ccn2)cn1 (single isomer, unassigned) [Compound 49, (R/S)-2-(4-cyclopropylphenyl)-7-((2-(1-methyl-1H-pyrazol-4-yl)pyridin-4-yl)oxy)-2,3-dihydro-[1,4]dioxino[2,3-b]pyridine] |
| 48 | 28 | Cc1cnc2ccc(Oc3cnc(OCc4ccc(C5CC5)cc4)c(OCF)c3)cn2c1=O [Compound 14] |
